From patent US11396517B1, “Exo-aza spiro inhibitors of menin-MLL interaction” (Janssen Pharmaceutica NV, priority 2017, dated 2022)
Where two headings read alike, the source gives them in different places.

Target: T1, menin (Homo sapiens, UniProt O00255, T541A)
T1 construct: Menin (a.a. 1-610-6×his tag)
T1 sequence (O00255 with tags, fused parts or gaps T541A): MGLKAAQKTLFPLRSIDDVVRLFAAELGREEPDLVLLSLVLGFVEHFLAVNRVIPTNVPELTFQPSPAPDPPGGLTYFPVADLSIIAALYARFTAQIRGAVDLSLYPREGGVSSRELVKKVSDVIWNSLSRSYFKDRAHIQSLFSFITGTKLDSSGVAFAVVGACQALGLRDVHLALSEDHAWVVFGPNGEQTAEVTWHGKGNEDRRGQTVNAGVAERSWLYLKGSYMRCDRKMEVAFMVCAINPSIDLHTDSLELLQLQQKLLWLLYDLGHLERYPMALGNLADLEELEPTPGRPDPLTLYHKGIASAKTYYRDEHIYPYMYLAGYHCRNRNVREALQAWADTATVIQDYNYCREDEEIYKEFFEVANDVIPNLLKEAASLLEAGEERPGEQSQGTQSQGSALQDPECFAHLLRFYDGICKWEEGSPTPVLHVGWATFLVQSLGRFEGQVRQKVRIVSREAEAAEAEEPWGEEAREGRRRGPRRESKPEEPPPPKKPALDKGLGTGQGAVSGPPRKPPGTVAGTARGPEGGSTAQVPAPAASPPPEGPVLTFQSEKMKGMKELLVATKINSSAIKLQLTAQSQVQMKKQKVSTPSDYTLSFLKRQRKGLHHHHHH
Test: Menin/MLL homogenous time-resolved fluorescence (HTRF) assay
Type: binding
Description: 2) Menin/MLL Homogenous Time-Resolved Fluorescence (HTRF) Assay
To an untreated, white 384-well microtiter plate was added 40 nL 200× test compound in DMSO and 4 μL 2× terbium chelate-labeled menin (vide infra for preparation) in assay buffer (40 mM Tris HCl, pH 7.5, 50 mM NaCl, 1 mM DTT and 0.05% Pluronic F-127). After incubation of test compound and terbium chelate-labeled menin for 5 min at ambient temperature, 4 μL 2× FITC-MBM1 peptide (FITC-β-alanine-[…]-NH2 (SEQ ID NO: 23)) in assay buffer was added, the microtiter plate centrifuged at 1000 rpm for 1 min and the assay mixtures incubated for 15 min at ambient temperature. The relative amount of menin.FITC-MBM1 complex present in an assay mixture is determined by measuring the homogenous time-resolved fluorescence (HTRF) of the terbium/FITC donor/acceptor fluorphore pair using a BMG Pherastar plate reader (ex. 337 nm/terbium em. 490 nm/FITC em. 520 nm) at ambient temperature. The degree of fluorescence resonance energy transfer (the HTRF value) is expressed as the ratio of the fluorescence emission intensities of the FITC and terbium fluorophores (Fern 520 nm/Fem 490 nm). The final concentrations of reagents in the binding assay are […] terbium chelate-labeled menin (location 2), 75 nM FITC-MBM1 peptide and 0.5% DMSO in assay buffer. Dose-response titrations of test compounds are conducted using an 11 point, three-fold serial dilution scheme, starting typically at 25 μM (location 1) or starting typically at 10 μM (location 2).
Compound potencies were determined by first calculating % inhibition at each compound concentration according to equation 1: % inhibition=((HC−LC)−(HTRF^compound−LC))/(HC−LC))*100 (Eqn 1)
Where LC and HC are the HTRF values of the assay in the presence or absence of a saturating concentration of a compound that competes with FITC-MBM1 for binding to menin, and HTRF^compound is the measured HTRF value in the presence of the test compound. FTC and LC HTRF values represent an average of at least 16 replicates per plate.
Where Bottom and Top are the lower and upper asymptotes of the dose-response curve, respectively, IC50 is the concentration of compound that yields 50% inhibition of signal and h is the Hill coefficient.
Preparation of Terbium cryptate labeling of Menin: Menin (a.a. 1-610-6×his tag (“6×his” disclosed as SEQ ID NO: 3)) was labeled with terbium cryptate as follows. 2 mg of Menin was buffer exchanged into 1× phosphate buffered saline. 16 uM Menin was incubated with 4-fold molar excess NHS-terbium cryptate (Cisbio Bioassays, Bedford, Mass.) for 2 hours at room temperature. The labeled protein was purified away from free label by running the reaction over a Superdex 200 Increase 10/300 GL column at 0.75 ml/min. Peak fractions were collected, aliquoted and frozen at −80° C.

[1] = location 1, read-out: (2) location 1 Menin HTRF assay (IC50 (nM))
[2] = location 2, read-out: (2) location 2 Menin HTRF assay (IC50 (nM))

SMILES | IC50 [1] [nM] | IC50 [2] [nM]
N#CCc1ccc(C(=O)NC2CC3(CCN(c4ncnc5sc(CC(F)(F)F)cc45)C3)C2)cc1 (mixture of isomers) [Compound 10] | 843 | 948
CC(C)CN(C(=O)CCN1CCOCC1)C1CC2(CCN(c3ncnc4sc(CC(F)(F)F)cc34)C2)C1 (mixture of isomers) [Compound 52] | 555 | 
Fc1ccccc1NC1CC2(CCN(c3ncnc4sc(CC(F)(F)F)cc34)C2)C1 (mixture of isomers) [Compound 156] |  | 155
Fc1cccc(NC2CC3(CCN(c4ncnc5sc(CC(F)(F)F)cc45)C3)C2)c1 (mixture of isomers) [Compound 157] |  | 118
FC(F)(F)Cc1cc2c(N3CCC4(CC(Nc5ccccc5Cl)C4)C3)ncnc2s1 (mixture of isomers) [Compound 159] |  | 199
FC(F)(F)Cc1cc2c(N3CCC4(CC(Nc5cccc(Cl)c5)C4)C3)ncnc2s1 (mixture of isomers) [Compound 160] |  | 150
FC(F)(F)Cc1cc2c(N3CCC4(CC(Nc5ccc(Cl)cc5)C4)C3)ncnc2s1 (mixture of isomers) [Compound 161] |  | 101
Cc1ccccc1NC1CC2(CCN(c3ncnc4sc(CC(F)(F)F)cc34)C2)C1 (mixture of isomers) [Compound 165] |  | 656
Cc1cccc(NC2CC3(CCN(c4ncnc5sc(CC(F)(F)F)cc45)C3)C2)c1 (mixture of isomers) [Compound 166] |  | 400
Cc1ccc(NC2CC3(CCN(c4ncnc5sc(CC(F)(F)F)cc45)C3)C2)cc1 (mixture of isomers) [Compound 167] |  | 98.1
N#CCc1cccc(NC2CC3(CCN(c4ncnc5sc(CC(F)(F)F)cc45)C3)C2)c1 (mixture of isomers) [Compound 173] |  | 127
CN(CC1CC2(CCN(c3ncnc4sc(CC(F)(F)F)cc34)C2)C1)c1cnn(C)c1 (mixture of isomers) [Compound 197] |  | 2350
Cn1ncc2ccc(NC3CC4(CCN(c5ncnc6sc(CC(F)(F)F)cc56)C4)C3)cc21 (mixture of isomers) [Compound 206] |  | 224
Cn1cnc2ccc(NC3CC4(CCN(c5ncnc6sc(CC(F)(F)F)cc56)C4)C3)cc21 (mixture of isomers) [Compound 207] |  | 210
Cc1noc2cc(NC3CC4(CCN(c5ncnc6sc(CC(F)(F)F)cc56)C4)C3)ccc12 (mixture of isomers) [Compound 215] |  | 62
CNc1nc(N2CCC3(CC(Nc4ccc5oc(=O)n(CCN6CCN(S(C)(=O)=O)CC6)c5c4)C3)C2)c2cc(CC(F)(F)F)sc2n1 (mixture of isomers) [Compound 248] |  | 348
CS(=O)(=O)N1CCN(CCn2c(=O)oc3cc(NC4CC5(CCN(c6ncnc7sc(CC(F)(F)F)cc67)C5)C4)ccc32)CC1 (mixture of isomers) [Compound 249] |  | 272
CN(C(=O)c1ccccc1)C1CC2(CCN(c3ncnc4sc(CC(F)(F)F)cc34)C2)C1 (mixture of isomers) [Compound 260] |  | > 10000
CS(=O)(=O)N1CCN(CCn2c(=O)oc3ccc(NC4CC5(CCN(c6ncnc7sc(CC(F)(F)F)cc67)C5)C4)cc32)CC1 (mixture of isomers) [Compound 270] |  | 518
O=c1ccc(NC2CC3(CCN(c4ncnc5sc(CC(F)(F)F)cc45)C3)C2)c[nH]1 (mixture of isomers) [Compound 305] |  | 148
FC(F)(F)Cc1cc2c(N3CCC4(CC(Nc5cn[nH]c5)C4)C3)ncnc2s1 (mixture of isomers) [Compound 309] |  | 339

SMILES | IC50 [1] [nM] | IC50 [2] [nM]
Cn1cc(NC2CC3(CCN(c4ncnc5sc(CC(F)(F)F)cc45)C3)C2)cn1 (mixture of isomers) [Compound 310] |  | > 10000
Cn1c(=O)[nH]c2ccc(NC3CC4(CCN(c5ncnc6sc(CC(F)(F)F)cc56)C4)C3)cc21 (mixture of isomers) [Compound 325] |  | 1690
CN1CCN(C(=O)c2ccc(NC3CC4(CCN(c5ncnc6sc(CC(F)(F)F)cc56)C4)C3)cc2)CC1 (mixture of isomers) [Compound 336] |  | 297
N#Cc1cccc(S(=O)(=O)NC2CC3(CCN(c4ncnc5sc(CC(F)(F)F)cc45)C3)C2)c1 (mixture of isomers) [Compound 415] |  | 473
O=S(=O)(NC1CC2(CCN(c3ncnc4sc(CC(F)(F)F)cc34)C2)C1)c1cccc(C(F)(F)F)c1 (mixture of isomers) [Compound 416] |  | 433
O=S(=O)(NC1CC2(CCN(c3ncnc4sc(CC(F)(F)F)cc34)C2)C1)c1ccc(C(F)(F)F)cc1 (mixture of isomers) [Compound 417] |  | 221
O=c1cc(NC2CC3(CCN(c4ncnc5sc(CC(F)(F)F)cc45)C3)C2)cc[nH]1 (mixture of isomers) [Compound 424] |  | 576
CN(C1CC2(CCN(c3ncnc4sc(CC(F)(F)F)cc34)C2)C1)S(=O)(=O)c1cccc(C#N)c1 (mixture of isomers) [Compound 425] |  | 234
CN(C1CC2(CCN(c3ncnc4sc(CC(F)(F)F)cc34)C2)C1)S(=O)(=O)c1cccc(C(F)(F)F)c1 (mixture of isomers) [Compound 426] |  | 536
CN(C1CC2(CCN(c3ncnc4sc(CC(F)(F)F)cc34)C2)C1)S(=O)(=O)c1ccc(C(F)(F)F)cc1 (mixture of isomers) [Compound 427] |  | > 10000
FC(F)(F)Cc1cc2c(N3CC4(CCC(Nc5cn[nH]c5)C4)C3)ncnc2s1 (racemic) [Compound 277] |  | 949
Cc1nc(N2CC3(CCC(Nc4ccc(CC#N)cc4)C3)C2)c2cc(CC(F)(F)F)sc2n1 (racemic) [Compound 403] |  | 553
FC(F)(F)Cc1cc2c(N3CCC4(CCC(NCc5ccccc5)C4)C3)ncnc2s1 (single isomer, unassigned) [Compound 4] | 188 | 39.9
FC(F)(F)Cc1cc2c(N3CCC4(CCC(NCc5ccccc5)C4)C3)ncnc2s1 (single isomer, unassigned) [Compound 6] | 472 | 143
N#CCc1ccc(C(=O)NC2CC3(CCN(c4ncnc5sc(CC(F)(F)F)cc45)C3)C2)cc1 (single isomer, unassigned) [Compound 11] |  | 3760
N#CCc1ccc(C(=O)NC2CC3(CCN(c4ncnc5sc(CC(F)(F)F)cc45)C3)C2)cc1 (single isomer, unassigned) [Compound 12] |  | 730
CN(C1CC2(CCN(c3ncnc4sc(CC(F)(F)F)cc34)C2)C1)S(=O)(=O)c1ccccc1 (single isomer, unassigned) [Compound 25] |  | 510
CN(C1CC2(CCN(c3ncnc4sc(CC(F)(F)F)cc34)C2)C1)S(=O)(=O)c1ccccc1 (single isomer, unassigned) [Compound 26] |  | 311
CS(=O)(=O)Nc1ccc(C(=O)NC2CC3(CCN(c4ncnc5sc(CC(F)(F)F)cc45)C3)C2)cc1 (single isomer, unassigned) [Compound 28] |  | > 10000
CS(=O)(=O)Nc1ccc(C(=O)NC2CC3(CCN(c4ncnc5sc(CC(F)(F)F)cc45)C3)C2)cc1 (single isomer, unassigned) [Compound 29] |  | 316
FC(F)(F)Cc1cc2c(N3CCC4(CCC(Nc5ccccc5)C4)C3)ncnc2s1 (single isomer, unassigned) [Compound 31] |  | 241
